Data on one compound can be found in ChEMBL document CHEMBL3272018, “Synthesis of aziridinylallylaminophosphine oxides and sulfides as potential adjuvant cancer chemotherapeutic agents” (J Med Chem, 1976).

In series [1] the test system is Musca domestica. The experiment in a line: Toxicity in male house fly assessed as sterility. The series is classed as organism-based. Particulars: in vivo.
Series [2] concerns Musca domestica. The experiment in a line: Toxicity in mixed sex house flies assessed as sterility at 1% administered in sugar relative to control. The series is classed as organism-based. Particulars: in vivo, po.

Turning to `C=CCN(C1=CCCCC1)P(=O)(N1CC1C)N1CC1C` (configuration not stated), the Activity result is “Non-toxic” in series [1] and 82% in series [2].
